According to patent publication US20120015390A1, “Methods for the Detection and Treatment of Aberrant Prion Disease” (PROTEA BIOPHARMA N.V., priority 2009, published 2012):
Values joined by “and” are separate entries in the source; they are usually repeats but may differ in a detail not shown here. Equal values may be shown once.

How the values were obtained:
[1] = system: aberrant membrane NADH oxidase; assay type: cell-based
NADH oxidase = assay type: cell-based
NADH-oxidase = conditions: in vivo

Compound	CPM NADH hypotoon [1] [CPM]	CPM NADH isotoon [1] [CPM]	CPM iso/hypo [1]	induction of aberrant NADH-oxidase (higher counts under isotonic conditions) [1]	formation of cell surface associated aberrant NADH oxidase (NADH oxidase)	isotonic NADH induced lucigenin-dependent chemiluminescence in urine (NADH-oxidase)	chemiluminescence response after addition of substance and hypotonic NADH (NADH oxidase)	chemiluminescence response after addition of substance and isotonic NADH (NADH oxidase)	CPM (NADH oxidase)
C[CH2][Hg][S]c1ccccc1C(=O)[O-].[Na+] [Thimerosal]	3338	2380	0.71	–	–	–	–	–	–
O=[N+]([O-])[O-].O=[N+]([O-])[O-].[Pb+2] [Pb(NO3)2]	817	1402	1.71	suggest induction of aberrant NADH-oxidase	–	–	–	–	–
[Cl][Cd][Cl] [CdCl2]	376	114	0.30	–	–	–	–	–	–
HgCl2	18	101	5.61	suggest induction of aberrant NADH-oxidase	induces the formation of cell surface associated aberrant NADH oxidase	–	–	–	–
C[S+](C)[O-] [DMSO]	–	–	–	–	–	increases	significant concentration-dependent increase	not observed	–
[Cl][Ni][Cl] [NiCl2]	860	913	1.06	suggest induction of aberrant NADH-oxidase	–	–	–	–	–
Heparin	–	–	–	–	–	–	significant concentration-dependent increase	not observed	17740 CPM and 15303 CPM and 14082 CPM and 10372 CPM and 9192 CPM
